Measured values taken from patent publication US6730775B1, “Methods for limiting scar and adhesion formation” (University of Southern California, priority 1999, dated 2004).
Entries after “also recorded” stand apart in the source; their conditions may differ. Where no end group is shown, it is not given here. [ ]: non-standard residue; d: D form. Nle = CCCC[C@H](N)C(=O)O

What was measured:
[1] = tested on: full thickness incision wounds; assay: Rat full thickness incision model (Example 2); type: in vivo, Sprague Dawley rats; conditions: for early inflammation and wound dehiscence / number of incisions that were free of scar / overall scar formation: into the subcutaneous space prior to closure with DermaBond; for early inflammation and wound dehiscence: FIG. 1, day 5; for number of incisions that were free of scar: later time points after healing, FIG. 2, days 14, 19, 21; for overall scar formation: later time points, FIG. 3, scar score rank days 14 and 19; for healing time / number of incisions with no scar by gross observations: repeated; for healing time: systemic administration (especially pretreatment with 100 μg/kg body weight/day of 9GD), FIGS. 4-6; for number of incisions with no scar by gross observations: systemic administration, FIGS. 7-9, days 14 and 21
Protocol: This study was designed to compare the effect of a daily administration of AII(1-7) and 9GD on the healing of full thickness incision wounds in a rat model. For topical administration, the viscous vehicle was prepared from carboxymethylcellulose (CMC sodium salt, low viscosity, Sigma Chemical CO., St. Louis, Mo. (Lot number 34H0310)), consisting of 10% low viscosity CMC in 0.05 M phosphate buffer, pH 7.2, and was sterilized by autoclaving followed by mixing with sterile peptide solutions or DermaBond (provided by Ethicon, Inc.), AII(1-7) and 9GD were prepared by Bachem (Torrence, Calif.) under GMP conditions.
During the experimental period, Sprague Dawley rats (5 per group) were used in this study. The rats were housed one per cage in the University of Southern California vivarium on a 12:12 hour light/dark cycle. Food and water were available ad libitum.
On the dorsal surface of the rats, two full thickness incisions (approximately 3 cm in length) were made on a prepared surface under aseptic conditions. After injury, placebo or AII(1-7) (100 μg/wound [topical], or 100 μg/kg body weight [systemic]) or 9GD (10, 100, or 500 μg/wound [topical], or 10, 100, or 500 μg/kg body weight [systemic]) was administered. The wound was sutured closed (if the peptide was not given in an adhesive base) or was closed with […] (in groups that have the peptide administered with cyanoacrylate (DermaBond™)).
The animals were monitored for breathing, urination, and movement during the postoperative interval. Postoperative analgesic included twice daily administration of bupronex for 3 days post-operation. […] On day 21, the rats were euthanized by CO2 asphyxiation and tissues were harvested for histologic preparation.
Scar formation was assessed grossly, including assessment of inflammationh, dehiscence, scabbing, healing (defined as % of incision healed), and scarring. Inflammation, dehiscence, scabbing, and scarring were assessed on a 4 point scale (0, 1, 2, or 3) for none, mild, moderate, and severe, respectively. The severity of the scar was defined by the appearance of disruption, the contour of the healing site, the raising of the healing area, and the ability to note by gross observation that the wound had been made.

[2] = tested on: wound tissue; conditions: application to wound tissue; cited from earlier work
[3] = tested on: cultured cells that are involved in wound repair; conditions: cited from earlier work
[4] = tested on: rabbit corneal eye; conditions: rabbit corneal eye model; cited from earlier work
[5] = tested on: chick chorioallantoic membrane; conditions: chick chorioallantoic membrane model; cited from earlier work
[6] = tested on: primary human keratinocytes; conditions: via a non-AT1, non-AT2 receptor; cited from earlier work
[7] = tested on: 2 cm midline laparotomy incision; assay: Anti-scarring effect after rat laparotomy (Example 1); type: in vivo, Sprague Dawley rats; conditions: 100 μg/kg/day subcutaneously, 3 days prior to surgery and 11 days until necropsy; 11 day post-operative observation
Protocol: Female Sprague Dawley rats, weighing between 175 and 225 grams each, were used in this study. The rats were quarantined at least two days prior to surgery. The rats were housed in the University of Southern California vivarium on a 12:12 hour light/dark cycle. Food and water were available ad libitum except in the immediate postoperative period.
The rats underwent a standardized procedure for laparotomy (intramuscular anesthesia with ketamine/rompum, shaving with animal clippers, betadine scrub, alcohol scrub). A 2 cm incision was then made on the midline. A double-walled gelatin capsule was placed on the right side of the abdomen through the incision. The animals were subcutaneously injected with the peptides (detailed below) (100 μg/kg/day) for 3 days prior to surgery, and then for 11 days until necropsy. The abdominal wall and skin was then sutured closed using two layers of 4-0 Ethilon suture. Following surgery, the rats received analgesic for three days and were observed twice daily for signs of morbidity and mortality.

[8] = Unspecified test of effectiveness of AII fragments; conditions: test not specified
[9] = single dose in CMC in the subcutaneous space, FIG. 10
[10] = single dose in CMC in the subcutaneous space, FIG. 11

Substance | early inflammation and wound dehiscence [1] | number of incisions that were free of scar [1] | overall scar formation [1] | healing time [1] | number of incisions with no scar by gross observations [1] | healing [1, 9] | scar formation [1, 10] | healing ([1]; single dose, systemic) | scar formation ([1]; single dose, systemic) | scar apparent upon gross observation [7] | wound closure [7] | effectiveness [8] | also measured
Asp-Arg-Val-Tyr-Ile-His-Pro (DRVYIHP) [AII(1-7)] | reduced | increased | increased | accelerated | increased | accelerated healing | reduced scar formation | did not accelerate healing | did reduce scar formation | – | – | – | –
Asp-Arg-Val-Tyr-Ile-His-Pro-Phe [AII] | – | – | – | – | – | – | – | – | – | – | – | – | rate of wound healing [2]: significantly increases; mitogenesis and chemotaxis [3]: increases; release of growth factors and extracellular matrices [3]: increases; angiogenic [4]: angiogenic; angiogenic [5]: angiogenic; proliferation of primary human keratinocytes [6]: stimulate proliferation
DR(nor)YIHP (DR[Nle]YIHP) [9GD] | reduced | increased | increased | accelerated | increased | accelerated healing | reduced scar formation | did not accelerate healing | did reduce scar formation | no scar was apparent | complete | – | –
DRKYIHP [5GD] | – | – | – | – | – | – | – | – | – | no scar was apparent | complete | – | –
His-Pro-Phe (HPF) [AII(6-8)] | – | – | – | – | – | – | – | – | – | – | – | not to be effective | –
Tyr-Ile-His-Pro-Phe (YIHPF) [AII(4-8)] | – | – | – | – | – | – | – | – | – | – | – | not to be effective; also recorded: ineffective | –
